Key:
Influenza A (H1N1) = type: cell-based
Influenza A (H3N2) = type: cell-based
[1] = system: PR8 wild-type influenza A virus; assay: microbe, parasite or virus in culture; type: cell-based; conditions: PR8, MDCK
[2] = system: SHIV-1SCVpu (ion channel sequence of HIV-1 Vpu); type: cell-based
SHIV-1PND2 = type: cell-based
MDCK cells = conditions: dog
[3] = molecular target: M2 viroporin of influenza A (Influenza A virus, UniProt P06821); conditions: cited from earlier work
in vitro = conditions: dog
influenza = conditions: human, in vivo; cited from earlier work

M2 viroporin of influenza A, sequence (P06821 whole entry, looked up): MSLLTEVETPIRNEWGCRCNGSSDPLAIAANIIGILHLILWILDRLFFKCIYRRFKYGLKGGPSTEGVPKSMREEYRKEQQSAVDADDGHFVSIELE

## Cn1cc(-c2cccc3cc(C(=O)NC(=N)N)ccc23)cn1 [BIT225, N-carbamimidoyl-5-(1-methyl-1H-pyrazol-4-yl)-2-naphthamide]
Influenza A (H1N1)
  Comments: Active
Influenza A (H3N2)
  Comments: Active
[1]
  EC50: ~10 µM
  EC90: 12 µM
[2]
  Virus released into the culture supernatant as measured by viral p27 protein: reduced virus released
SHIV-1PND2
  Virus replication: does not significantly reduce virus replication
MDCK cells
  Toxic effects (no toxic effects up to): > 100 µM
[3]
  Activity against the M2 viroporin of influenza A: only limited activity
In vitro
  CC50: 32 µM

## CCOC(=O)C1=C[C@@H](OC(CC)CC)[C@H](NC(C)=O)[C@@H](N)C1 [oseltamivir]
influenza
  Reduction of time to alleviation of symptoms of influenza: 16.8 h

Source: patent US10918623B2, “Methods of treating influenza” (Biotron Limited, priority 2017, dated 2021)
